Here are results for 54 molecules from patent US8822464B2, “N-aryl-piperazine derivatives and their use as positive allosteric modulators of mGluR5 receptors” (Boehringer Ingelheim International GmbH, priority 2011, dated 2014).

Each structure is given as a SMILES string.

T1 sequence (P41594 21-1212): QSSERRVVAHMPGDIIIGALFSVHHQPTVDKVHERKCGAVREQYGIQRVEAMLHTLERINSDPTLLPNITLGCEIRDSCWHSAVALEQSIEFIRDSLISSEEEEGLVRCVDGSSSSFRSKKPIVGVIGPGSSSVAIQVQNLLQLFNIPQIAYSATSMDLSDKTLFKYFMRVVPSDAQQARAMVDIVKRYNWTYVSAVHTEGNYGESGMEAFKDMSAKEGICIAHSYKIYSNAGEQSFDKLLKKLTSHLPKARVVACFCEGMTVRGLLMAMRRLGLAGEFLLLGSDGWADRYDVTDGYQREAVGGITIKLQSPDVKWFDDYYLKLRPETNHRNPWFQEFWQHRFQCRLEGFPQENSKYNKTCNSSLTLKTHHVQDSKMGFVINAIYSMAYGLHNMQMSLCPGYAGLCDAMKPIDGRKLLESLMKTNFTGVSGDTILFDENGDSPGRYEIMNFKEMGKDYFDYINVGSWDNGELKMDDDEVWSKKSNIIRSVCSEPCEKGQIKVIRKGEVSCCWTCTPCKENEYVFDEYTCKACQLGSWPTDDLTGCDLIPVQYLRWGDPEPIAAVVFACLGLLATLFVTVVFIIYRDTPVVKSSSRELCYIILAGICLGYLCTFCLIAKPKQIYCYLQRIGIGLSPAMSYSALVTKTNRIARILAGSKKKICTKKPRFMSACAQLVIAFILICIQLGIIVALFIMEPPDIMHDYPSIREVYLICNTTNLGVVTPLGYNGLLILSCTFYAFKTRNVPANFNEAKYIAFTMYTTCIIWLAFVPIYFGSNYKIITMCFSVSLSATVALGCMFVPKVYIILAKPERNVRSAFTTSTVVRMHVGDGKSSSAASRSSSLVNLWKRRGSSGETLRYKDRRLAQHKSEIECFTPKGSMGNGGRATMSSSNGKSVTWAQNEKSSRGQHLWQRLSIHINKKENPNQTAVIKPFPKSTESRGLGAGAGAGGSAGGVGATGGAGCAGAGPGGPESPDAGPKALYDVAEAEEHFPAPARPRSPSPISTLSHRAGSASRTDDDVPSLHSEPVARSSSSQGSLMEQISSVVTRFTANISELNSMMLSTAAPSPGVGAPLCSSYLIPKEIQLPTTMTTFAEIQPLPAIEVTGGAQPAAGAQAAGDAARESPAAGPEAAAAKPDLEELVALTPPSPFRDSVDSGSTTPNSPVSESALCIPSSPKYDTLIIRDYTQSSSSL

The experiment addresses T1, human recombinant mGluR5 (Homo sapiens, UniProt P41594).
T1 construct: expressed in transfected cells; host or cells: HEK 293 cell line; cultured with tetracycline, hygromycin and geneticin; tetracycline withdrawn 3-7 days before the assay
The experiment in a line: positive modulation of mGluR5, calcium based FLIPR assay in HEK 293 cells. As to conditions: HEK 293 cell line expressing human recombinant mGluR5; peak height of Ca release fluorescence signal after glutamate at approximately 5% basal stimulation; nonlinear regression. A digest of the protocol: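 HEK 293 cells expressing human mGluR5, tetracycline-free 3-7 days, Calcium-4 dye-loaded in Ringer solution pH 7.4; 1% DMSO final. Compound added 5 min before glutamate at ~5% of maximal effect; peak Ca2+ fluorescence normalized to basal glutamate (100%) and 10 μM CDPPB (200%); EC50 by nonlinear regression.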
In the case of `COc1cnc(N2CCN(C(=O)Cn3nc(-c4cccc(C)c4)cc3-c3ccccc3)CC2)nc1` [Example 7.01.171], the EC50 – broadly, the concentration giving half of the maximal effect – is 9 nM.

As to `N#Cc1cccc(-c2cc(-c3ccccc3)nn2CC(=O)N2CCN(c3ncccn3)CC2)c1` [Example 7.01.172], the EC50 stood at 152 nM.

`COc1cc(N2CCN(C(=O)Cn3nc(-c4cccc(C)c4)cc3-c3ccccc3)CC2)ncn1` [Example 7.01.173]: the EC50 was 11 nM.

Regarding `O=C(Cn1nc(-c2ccc(OC(F)F)cc2)cc1-c1ccccc1)N1CCN(c2ncccn2)CC1` [Example 7.01.174], the EC50 came to 3 nM.

`O=C(Cn1nc(-c2ccc(OC(F)F)cc2)cc1-c1ccccc1)N1CCN(c2ccccn2)CC1` [Example 7.01.175]: the EC50 turned out to be 10 nM.

Take `COc1cc(N2CCN(C(=O)Cn3nc(-c4ccc(OC(F)F)cc4)cc3-c3ccccc3)CC2)ncn1` [Example 7.01.176]: the EC50 worked out at 10 nM.

For the molecule `COc1ccc(-c2cc(-c3ccccc3)n(CC(=O)N3CCN(c4ncccn4)CC3)n2)cc1C` [Example 7.01.177], the EC50 came to 24 nM.

For `O=C(Cn1nc(-c2ccc(OC(F)F)cn2)cc1-c1ccccc1)N1CCN(c2ncccn2)CC1` [Example 7.01.178], the EC50 was 21 nM.

As for `O=C(Cn1nc(-c2ccc(OC(F)F)cn2)cc1-c1ccccc1)N1CCN(c2ccccn2)CC1` [Example 7.01.179], the EC50 amounted to 46 nM.

For `COc1cc(N2CCN(C(=O)Cn3nc(-c4ccc(OC(F)F)cn4)cc3-c3ccccc3)CC2)ncn1` [Example 7.01.180], the EC50 came to 64 nM.

As for `CCc1cc(-c2ccc(C)c(F)c2)nn1CC(=O)N1CCN(c2ncccn2)CC1` [Example 7.01.181], the EC50 is 130 nM.

For `CCc1cc(-c2ccc(C)c(F)c2)nn1CC(=O)N1CCN(c2ccccn2)CC1` [Example 7.01.182], the EC50 amounted to 434 nM.

As for `CCc1cc(-c2ccc(C)c(F)c2)nn1CC(=O)N1CCN(c2cc(OC)ncn2)CC1` [Example 7.01.183], the EC50 came to 318 nM.

For the molecule `COc1cc(N2CCN(C(=O)Cn3nc(-c4ccc(OC)c(C)c4)cc3-c3ccccc3)CC2)ncn1` [Example 7.01.184], the EC50 amounted to 145 nM.

On to `CCCc1cc(-c2ccc(F)c(C)n2)nn1CC(=O)N1CCN(c2ncccn2)CC1` [Example 7.01.185], for which the EC50 was 442 nM.

On to `CCCc1cc(-c2ccc(F)c(C)n2)nn1CC(=O)N1CCN(c2ccccn2)CC1` [Example 7.01.186], for which the EC50 was found to be 441 nM.

With `CCCc1cc(-c2ccc(F)c(C)n2)nn1CC(=O)N1CCN(c2cc(OC)ncn2)CC1` [Example 7.01.187], the EC50 was 360 nM.

In the case of `Cc1ccc(-c2cc(-c3ccccc3)n(CC(=O)N3CCN(c4ncccn4)CC3)n2)cc1F` [Example 7.01.188], the EC50 was 27 nM.

With `Cc1ccc(-c2cc(-c3ccccc3)n(CC(=O)N3CCN(c4ccccn4)CC3)n2)cc1F` [Example 7.01.189], the EC50 was determined as 48 nM.

As for `COc1cc(N2CCN(C(=O)Cn3nc(-c4ccc(C)c(F)c4)cc3-c3ccccc3)CC2)ncn1` [Example 7.01.190], the EC50 stood at 47 nM.

For the molecule `O=C(Cn1nc(-c2ccc(C(F)F)cc2)cc1-c1ccccc1)N1CCN(c2ncccn2)CC1` [Example 7.01.191], the EC50 was 7 nM.

As to `COc1cc(N2CCN(C(=O)Cn3nc(-c4ccc(C(F)F)cc4)cc3-c3ccccc3)CC2)ncn1` [Example 7.01.192], the EC50 stood at 15 nM.

For the molecule `O=C(Cn1nc(-c2ccccc2)cc1-c1ccccc1)N1CCN(c2ncccn2)CC1` [Example 7.02.01, 2-(3,5-diphenyl-pyrazol-1-yl)-1-(4-(2-pyrimidinyl)-1-piperazinyl)-ethanon], the EC50 came out at 35 nM.

As for `O=C(Cn1nc(-c2ccccc2)cc1-c1ccccc1)N1CCN(c2cccnc2)CC1` [Example 7.02.02], the EC50 stood at 428 nM.

On to `O=C(Cn1nc(-c2ccccc2)cc1-c1ccccc1)N1CCN(c2ccccn2)CC1` [Example 7.02.03], for which the EC50 was determined as 29 nM.

Take `O=C(Cn1nc(-c2ccccc2)cc1-c1ccccc1)N1CCN(c2ccccc2)CC1` [Example 7.02.04]: the EC50 is 393 nM.

Turning to `O=C(Cn1nc(-c2ccccc2)cc1-c1ccccc1)N1CCN(c2cnccn2)CC1` [Example 7.02.05], the EC50 is 85 nM.

Take `O=C(Cn1nc(-c2ccccc2)cc1-c1ccccc1)N1CCN(c2cccnc2)CC1` [Example 7.02.06]: the EC50 came out at 581 nM.

For the molecule `O=C(Cn1nc(-c2ccccc2)cc1-c1ccccc1)N1CCN(c2cc3ccccc3cn2)CC1` [Example 7.02.07], the half-maximal effective concentration (EC50) is 853 nM.

`N#Cc1ccc(N2CCN(C(=O)Cn3nc(-c4ccccc4)cc3-c3ccccc3)CC2)nc1` [Example 7.02.08]: the EC50 came to 934 nM.

As to `N#Cc1cccnc1N1CCN(C(=O)Cn2nc(-c3ccccc3)cc2-c2ccccc2)CC1` [Example 7.02.09], the concentration giving a half-maximal response (EC50) was 298 nM.

With `O=C(Cn1nc(-c2ccccc2)cc1-c1ccccc1)N1CCN(c2ncc(Br)cn2)CC1` [Example 7.02.11], the EC50 worked out at 91 nM.

As to `O=C(Cn1nc(-c2ccccc2)cc1-c1ccccc1)N1CCN(c2nccc(C(F)(F)F)n2)CC1` [Example 7.02.12], the EC50 worked out at 1260 nM.

Consider `O=C(Cn1nc(-c2ccccc2)cc1-c1ccccc1)N1CCN(c2cc(C(F)(F)F)ccn2)CC1` [Example 7.02.13], for which the EC50 was 696 nM.

Turning to `O=C(Cn1nc(-c2ccccc2)cc1-c1ccccc1)N1CCN(c2ncncn2)CC1` [Example 7.02.14], the EC50 worked out at 129 nM.

On to `COCc1cc(-c2ccc(F)c(C)c2)nn1CC(=O)N1CCN(c2ncccn2)CC1` [Example 7.02.15], for which the half-maximal effective concentration (EC50) was 153 nM.

As to `COCc1cc(-c2ccc(F)c(C)c2)nn1CC(=O)N1CCN(c2ccccn2)CC1` [Example 7.02.16], the EC50 is 237 nM.

As for `COCc1cc(-c2ccc(F)c(C)c2)nn1CC(=O)N1CCN(c2cc(OC)ccn2)CC1` [Example 7.02.17], the EC50 is 182 nM.

Take `COCc1cc(-c2ccc(F)c(C)c2)nn1CC(=O)N1CCN(c2cc(OC)ncn2)CC1` [Example 7.02.18]: the EC50 came to 211 nM.

With `COCc1cc(-c2ccc(F)c(C)c2)nn1CC(=O)N1CCN(c2cccnn2)CC1` [Example 7.02.19], the EC50 was 1200 nM.

In the case of `COCc1cc(-c2ccc(F)c(C)c2)nn1CC(=O)N1CCN(c2ncnc3[nH]cnc23)CC1` [Example 7.02.20], the EC50 was found to be 183 nM.

Take `Cc1cc(-c2cc(C)n(CC(=O)N3CCN(c4ccccn4)CC3)n2)ccc1F` [Example 7.02.21]: the EC50 amounted to 77 nM.

As to `COc1ccnc(N2CCN(C(=O)Cn3nc(-c4ccc(F)c(C)c4)cc3C)CC2)c1` [Example 7.02.22], the concentration for a half-maximal effect (EC50) amounted to 85 nM.

`COc1cc(N2CCN(C(=O)Cn3nc(-c4ccc(F)c(C)c4)cc3C)CC2)ncn1` [Example 7.02.23]: the EC50 came to 60 nM.

Take `Cc1cc(-c2cc(C)n(CC(=O)N3CCN(c4cccnn4)CC3)n2)ccc1F` [Example 7.02.24]: the EC50 is 340 nM.

Take `Cc1cc(-c2cc(C)n(CC(=O)N3CCN(c4ncnc5[nH]cnc45)CC3)n2)ccc1F` [Example 7.02.25]: the EC50 is 92 nM.

Consider `COc1cnc(N2CCN(C(=O)Cn3nc(-c4ccc(F)c(C)c4)cc3C)CC2)nc1` [Example 7.02.26], for which the EC50 was 36 nM.

With `Cc1cc(-c2cc(-c3ccccc3)n(CC(=O)N3CCN(c4ccccc4)CC3)n2)ccc1F` [Example 7.02.27], the EC50 was determined as 243 nM.

As to `COc1ccc(-c2cc(-c3ccc(OC)cc3)n(CC(=O)N3CCN(c4ncccn4)CC3)n2)cc1` [Example 7.03.01], the EC50 came to 31 nM.

Take `O=C(Cn1nc(-c2ccccc2F)cc1-c1ccccc1F)N1CCN(c2ncccn2)CC1` [Example 7.04.01]: the EC50 is 696 nM.

As to `O=C(Cn1nc(C2CCCCC2)cc1-c1ccc(F)cc1)N1CCN(c2ncccn2)CC1` [Example 7.04.02], the EC50 turned out to be 81 nM.

Regarding `COC(=O)c1ccc(-c2cc(-c3ccccc3)n(CC(=O)N3CCN(c4ncccn4)CC3)n2)cc1` [Example 7.04.03], the EC50 came to 392 nM.

As to `Cc1cc(-c2cc(-c3ccccc3)n(CC(=O)N3CCN(c4cc(OCCN5CCOCC5)ncn4)CC3)n2)ccc1F` [Example 7.05.01, 2-[3-(4-fluoro-3-methyl-phenyl)-5-phenyl-pyrazol-1-yl]-1-{4-[6-(2-morpholin-4-yl-ethoxy)-pyrimidin-4-yl]-piperazin-1-yl}-ethanone], the EC50 worked out at 40 nM.

With `Cc1cc(-c2cc(-c3ccccc3)n(CC(=O)N3CCN(c4cc(OCC(C)O)ncn4)CC3)n2)ccc1F` (stereo not drawn) [Example 7.05.02], the concentration giving a half-maximal response (EC50) came out at 38 nM.
